Source: patent US9669015B2, “Piperidine-2, 6-dione derivatives and their use as tumor necrosis factor inhibitors” (Tianjin Hemay Bio-Tech Co., Ltd., priority 2005, dated 2017)

Legend:
[1] = Solubility in water; type: physicochemical
[2] = system: TNFα released by PBMCs; assay: Inhibition of TNFα released by PBMCs after LPS stimulation in vitro (ELISA); type: cell-based, human; conditions: for Inhibition Degree (%): TNFα inhibition rate, LPS 0.1 μg/ml-stimulated PBMCs, compound concentration 3.0 μM; for EC50: concentration giving 50% TNFα inhibition, LPS-stimulated PBMCs, nonlinear regression
Source text: Pharmacological Research: Effects of Monocyte (PBMC) Stimulation by LPS on TNFα
Cytokine TNFα released by PBMCs in peripheral blood after lip polysaccharide (LPS) stimulation in vitro was studied. The followings are research methods of cytokine TNFα released by PBMCs, which are inhibited by compounds of the invention.
PBMCs were obtained from blood of at least three volunteers after heparin treatment, by the method of gradient extraction. PBMCs were collected and washed with 1640 culture medium three times (10% calf serum, 2 mM L-glutamine, […] mercaptoethanol, 50 μg/ml streptomycin, 50 U/ml penicillin). The above PBMCs were placed onto a 24-well cell culture plate. The concentration was adjusted to 1×10^6 cells/ml with 1640 culture medium. Test compounds were dissolved in dimethylsulfoxide at an appropriate concentration. The resultant solution was added to the above cell culture medium and the culture plate was placed in a CO2 incubator (5% CO2, 90% humidity) for 1 hour. Then, LPS (Sigma) was added to adjust the concentration to 0.1 μg/ml (except for contrast). After 20 hrs of incubation, the content of TNFα in supernatant of the above PBMC culture medium was determined by ELISA kit (America Genzyme Co) using standard method. The measured value of the control (no active compound), and the measured value of the tested compounds was used to calculate the TNFα inhibition rate. The concentration of compounds giving a 50% TNFα inhibition (IC50 value) was calculated by nonlinear regression analysis. Each concentration was determined twice and an average value was obtained.

[3] = Homo sapiens, PBMC, read-out: Inhibition Degree (%)

## 2-(1-(2-hydroxyethyl)-2,6-dioxopiperidin-3-yl)isoindolin-1,3-dione 2-(1-piperidyl)acetate hydrochloride [Example 14]
[1]
  Solubility in water: more than 100 mg/mL

## 2-(1-(2-hydroxyethyl)-2,6-dioxopiperidin-3-yl)isoindolin-1,3-dione 2-(diethylamino)acetate hydrochloride [Example 10]
[1]
  Solubility in water: higher than 100 mg/mL

## 4,5,6,7-tetrafluoro-2-(1-(2-methoxyethyl)-2,6-dioxopiperidin-3-yl)-4-nitroisoindoline-1,3-dione [Example 31]
[2]
  Inhibition Degree (%): 62%

## 4-fluoro-2-(1-(2-methoxyethyl)-2,6-dioxopiperidin-3-yl)-4-nitroisoindoline-1,3-dione [Example 30]
[2]
  Inhibition Degree (%): 58%

## O=C1CCC(N2C(=O)c3ccccc3C2=O)C(=O)N1CCO (stereo not drawn) [Example 1, 2-(1-(2-Hydroxyethyl)-2,6-dioxopiperidin-3-yl)isoindoline-1,3-dione]
[2]; [3]
  inhibition at 3 µM: 70%

## CCN(CC)CC(=O)OCCN1C(=O)CCC(N2C(=O)c3ccccc3C2=O)C1=O (stereo not drawn) [Example 9, 2-(1-(2-hydroxyethyl)-2,6-dioxopiperidin-3-yl)isoindolin-1,3-dione 2-(diethylamino)acetate]
[2]
  Inhibition Degree (%): 20%

## O=C1CCC(N2C(=O)c3ccccc3C2=O)C(=O)N1CCCCO (stereo not drawn) [Example 22, 2-(1-(4-hydroxybutyl)-2,6-dioxopiperidin-3-yl)isoindoline-1,3-dione]
[2]; [3]
  inhibition at 3 µM: 18%

## O=C1CCC(N2C(=O)c3cccc([N+](=O)[O-])c3C2=O)C(=O)N1CCO (stereo not drawn) [Example 24, 2-(1-(2-hydroxyethyl)-2,6-dioxopiperidin-3-yl)-4-nitroisoindoline-1,3-dione]
[2]; [3]
  inhibition at 3 µM: 28%

## Nc1cccc2c1C(=O)N(C1CCC(=O)N(CCO)C1=O)C2=O (stereo not drawn) [Example 26, 4-amino-2-(1-(2-hydroxyethyl)-2,6-dioxopiperidin-3-yl)isoindoline-1,3-dione]
[2]; Homo sapiens, PBMC
  EC50: 250 nM
[2]; [3]
  inhibition at 3 µM: 95%

## COCCN1C(=O)CCC(N2C(=O)c3cccc(N)c3C2=O)C1=O (stereo not drawn) [Example 27, 4-amino-2-(1-(2-methoxyethyl)-2,6-dioxopiperidin-3-yl)isoindoline-1,3-dione]
[2]; Homo sapiens, PBMC
  EC50: 300 nM
[2]; [3]
  inhibition at 3 µM: 92%

## COCCN1C(=O)CCC(N2C(=O)c3cccc(NC(C)=O)c3C2=O)C1=O (stereo not drawn) [Example 28, N-(2-(1-(2-methoxyethyl)-2,6-dioxopiperidin-3-yl)-1,3-dioxoisoindolin-7-yl)acetamide]
[2]; [3]
  inhibition at 3 µM: 78%

## COCCN1C(=O)CCC(N2C(=O)c3cccc(N(C)C)c3C2=O)C1=O (stereo not drawn) [Example 29, 4-(dimethylamino)-2-(1-(2-methoxyethyl)-2,6-dioxopiperidin-3-yl)isoindoline-1,3-dione]
[2]; [3]
  inhibition at 3 µM: 64%

## O=C1CCC(N2C(=O)c3ccccc3C2=O)C(=O)N1 (stereo not drawn) [Thalidomide, reference compound]
[2]; [3]
  inhibition at 100 µM: 22%
